Among the data in patent publication US8710079B2, “Quinoline compounds and their use for treating viral infection” (National Health Research Institutes, priority 2010, dated 2014) are IC50 and inhibition values, retold here.

As a reminder, the inhibition is the change of the read-out against control, counted positive when it falls.

Read-outs that look alike come from different tables or passages of the source.

Experiment [1] relates to Influenza A/WSN/33 (H1N1) virus. Nature of the experiment: In vitro anti-influenza virus assay (neutralization test), cytopathic effect on MDCK cells. The class given is cell-based. As to conditions: 72 h, read-out: IC50 (concentration reducing virus-induced cytopathic effect by 50%).
The subject of experiment [2] is HIV-1. Nature of the experiment: microbe, parasite or virus in culture. As to conditions: Human immunodeficiency virus 1, PBMC.
Protocol: Equal amounts of wild-type and mutant viruses were used to infect 5×10^4 peripheral blood mononuclear cells (PBMC) in 1.5 mL medium containing DMSO or various concentrations of a test compound. A half-milliliter of the culture medium was collected from each culture at days 3, 5, and 7. Viral RNA was extracted from the collected culture supernatants and the viral titers (copies/mL) were determined by real-time PCR. The percentage of inhibition was calculated as [100−(VD/VC)]×100%, where VD and VC refer to the virus titers in the presence and absence of the test compound, respectively.
Experiment [3] has as its system Influenza A/TW/355/97 (H1N1). Nature of the experiment: Anti-influenza neutralization test, various influenza virus strains. In kind it is cell-based.
In experiment [4] the test system is Influenza A/TW/147/09 (H1N1). Described as above. In kind it is cell-based.
Experiment [5] has as its system Influenza A/TW/70058/09 (H1N1). The description is as above. In kind it is cell-based.
In experiment [6] the test system is Influenza A/TW/70066/09 (H1N1). The description is as above. In kind it is cell-based.
Experiment [7] deals with Enterovirus 71/4643/MP4. Briefly: In vitro EV 71 neutralization assay, cytopathic effect on RD cells. As to conditions: Enterovirus A. (Cytopathic effects are the visible damage that an infection or toxin causes in cultured cells.)
Protocol: (§1) This assay measured the ability of a test compound to inhibit the cytopathic effect induced by a picornavirus (EV71, Coxsackie Virus B3, or human rhinovirus 2) on RD cells. […] More specifically, 96-well tissue culture plates were seeded with 200 μL of RD cells at a concentration of 3×10^5 cells/mL in DMEM with 10% FBS. The plates were incubated for 24-30 h at 37° C. and were used at about 90% confluency. Virus (100 TCID50) mixed with different concentrations of a test compound was added to the cells and incubated at 37° C. for 1 h. After adsorption, the infected cell plates were overlaid with 50 μL of DMEM plus 5% FBS and 2% DMSO. The plate was wrapped in Parafilm and incubated at 37° C. for 64 h. At the end of incubation, the plates were fixed by the addition of 100 μL of 0.5% glutaraldehyde for 1 h at room temperature. After the removal of glutaraldehyde, the plates were stained with 0.1% crystal violet for 15 min at room temperature. The plates were washed and dried, and the density of the well was measured at 570 nm. The concentration required for a test compound to reduce the virus-induced cytopathic effect (CPE) by 50% relative to the virus control is expressed as IC50.
Experiment [8] has as its system Coxsackie B virus 3. Briefly: In vitro Coxsackie Virus B3 neutralization assay, cytopathic effect on RD cells.
Protocol: as §1
In experiment [9] the test system is Human rhinovirus 2. Nature of the experiment: In vitro human rhinovirus 2 neutralization assay, cytopathic effect on RD cells. As to conditions: Rhinovirus A.
Protocol: as §1
Where [10] appears, read: Influenza A/WSN/33 (H1N1), MDCK cells.
Setting [11] is: Influenza A/WSN/33 (H1N1), MDCK cells, lower bound in nM, upper bound in μM.
Where [12] appears, read: 72 h, read-out: Inhibition (%) Day 3.
The mark [13] stands for this setting: 120 h, read-out: Inhibition (%) Day 5.
[14] abbreviates: 168 h, read-out: Inhibition (%) Day 7.

As to `Cc1cccc(C)c1-n1ncc(-c2cc(C(=O)O)c3cc(Br)ccc3n2)c1C` [Compound 36], the IC50 in experiment [1] (setting [10]) is 1000 to 5900 nM.

Turning to `Cc1ccc(-n2ncc(-c3cc(C(=O)O)c4cc(Br)ccc4n3)c2C)c(C)c1` [Compound 5], the IC50 in experiment [1] (setting [11]) lay in the range of 10 to 999 nM.

As to `Cc1c(-c2cc(C(=O)O)c3cc(Br)ccc3n2)cnn1-c1ccc(Br)cc1` [Compound 20], the IC50 in experiment [1] (setting [11]) was 10 to 999 nM.

As to `Cc1cccc(-n2ncc(-c3cc(C(=O)O)c4cc(Br)ccc4n3)c2C)c1` [Compound 26], the IC50 in experiment [1] (MDCK) is 10 to 999 nM.

With `Cc1c(-c2cc(C(=O)O)c3cc(Br)ccc3n2)cnn1-c1ccc(F)cc1` [Compound 10], in experiment [1] (setting [11]), the IC50 was in the range of 10 to 999 nM.

Regarding `Cc1c(-c2cc(C(=O)O)c3cc(Br)ccc3n2)cnn1-c1ccc(Cl)cc1` [Compound 12], in experiment [1] (setting [10]), the IC50 lay in the range of 1000 to 5900 nM.

As for `Cc1c(-c2cc(C(=O)O)c3cc(Br)ccc3n2)cnn1-c1ccc(Cl)cc1Cl` [Compound 27], the IC50 in experiment [1] (MDCK) fell in the range of 10 to 999 nM.

Regarding `Cc1c(-c2cc(C(=O)O)c3cc(Br)ccc3n2)cnn1-c1ccccc1F` [Compound 24], in [1] (MDCK), the IC50 is 10 to 999 nM.

As for `Cc1c(-c2cc(C(=O)O)c3cc(Br)ccc3n2)ccn1-c1ccccc1` [Compound 48], the IC50 in experiment [1] (setting [10]) was 1000 to 5900 nM.

`Cc1cc(Cl)ccc1-n1ncc(-c2cc(C(=O)O)c3cc(Br)ccc3n2)c1C` [Compound 14]: in experiment [1] (setting [11]), the IC50 fell in the range of 10 to 999 nM. Moreover, the inhibition at 10 µM in experiment [2] (setting [12]) is 20%; in [2] (setting [13]), 59%; in [2] (setting [14]) it was 86%. Moreover, in experiment [2] (setting [13]), the inhibition at 0.01 µM is 48%.

With `Cc1c(-c2cc(C(=O)O)c3cc(Br)ccc3n2)cnn1-c1cccc(Cl)c1` [Compound 25], the IC50 in experiment [1] (MDCK) was in the range of 10 to 999 nM.

On to `Cc1c(-c2cc(C(=O)O)c3cc(Br)ccc3n2)cnn1-c1ccc(C(F)(F)F)cc1` [Compound 23], for which, in experiment [1] (setting [10]), the IC50 is 1000 to 5900 nM.

Consider `Cc1c(-c2cc(C(=O)O)c3cc(Br)ccc3n2)cnn1-c1c(Cl)cc(Cl)cc1Cl` [Compound 42], for which, in experiment [1] (setting [10]), the IC50 lay within 1000 to 5900 nM.

Take `Cc1c(-c2cc(C(=O)O)c3cc(Br)ccc3n2)cnn1-c1cccc(F)c1` [Compound 11]: in experiment [1] (setting [10]), the IC50 is 1000 to 5900 nM.

For `Cc1c(-c2cc(C(=O)O)c3cc(Br)ccc3n2)cnn1-c1cc(F)ccc1F` [Compound 40], the IC50 in experiment [1] (setting [10]) lay within 6000 to 25000 nM.

Take `Cc1ccc(C)c(-n2ncc(-c3cc(C(=O)O)c4cc(Cl)ccc4n3)c2C)c1` [Compound 33]: the IC50 in experiment [1] (setting [11]) was in the range of 10 to 999 nM.

With `Cc1c(-c2cc(C(=O)O)c3cc(F)ccc3n2)cnn1-c1ccccc1` [Compound 3], in [1] (setting [10]), the IC50 lay in the range of 1000 to 5900 nM.

On to `Cc1cc(-c2cc(C(=O)O)c3cc(Br)ccc3n2)nn1-c1nc2ccccc2s1` [Compound 73], for which the IC50 in experiment [1] (setting [10]) lay within 1000 to 5900 nM.

In the case of `O=C(O)c1cc(-c2cc(-c3ccccc3)no2)nc2ccc(Br)cc12` [Compound 19], in experiment [1] (setting [10]), the IC50 was in the range of 1000 to 5900 nM.

As for `Cc1cn([C@H]2C[C@H](N=[N+]=[N-])[C@@H](CO)O2)c(=O)[nH]c1=O` [AZT, zidovudine, reference compound], the inhibition at 0.04 µM was determined as 30% in experiment [2] (setting [12]), 60% in experiment [2] (setting [13]) and 67% in experiment [2] (setting [14]).

Regarding `COc1ccc(-n2ncc(-c3cc(C(=O)O)c4cc(Br)ccc4n3)c2C)cc1` [Compound 7], the IC50 in experiment [1] (setting [10]) was 1000 to 5900 nM.

For `Cc1c(-c2cc(C(=O)O)c3cc(Cl)ccc3n2)cnn1-c1ccccc1` [Compound 4], the IC50 in experiment [1] (setting [11]) was in the range of 10 to 999 nM.

For `Cc1ccccc1-n1ncc(-c2cc(C(=O)O)c3cc(Br)ccc3n2)c1C` [Compound 17], in experiment [1] (setting [11]), the IC50 fell in the range of 10 to 999 nM.

In the case of `Cc1c(-c2cc(C(=O)O)c3cc(Br)ccc3n2)ncn1-c1ccccc1` [Compound 51], in experiment [1] (setting [11]), the IC50 lay in the range of 10 to 999 nM.

For `Cc1ccc(Cl)cc1-n1ncc(-c2cc(C(=O)O)c3cc(Cl)ccc3n2)c1C` [Compound 34], the IC50 in experiment [1] (setting [11]) was in the range of 10 to 999 nM.

For the compound `Cc1nc(-c2ccccc2)sc1-c1cc(C(=O)O)c2cc(Br)ccc2n1` [Compound 46], the IC50 in experiment [1] (setting [10]) was in the range of 1000 to 5900 nM.

With `CCCc1cccc(-n2ncc(-c3cc(C(=O)O)c4cc(Br)ccc4n3)c2C)c1` [Compound 22], the IC50 in experiment [1] (setting [11]) was in the range of 10 to 999 nM.

As for `Cc1ccc(C)c(-n2ncc(-c3cc(C(=O)O)c4cc(Br)cc(Br)c4n3)c2C)c1` [Compound 58], the IC50 in experiment [1] (setting [10]) lay in the range of 1000 to 5900 nM.

Consider `Cc1c(-c2ccccc2)cccc1-c1cc(C(=O)O)c2cc(Br)ccc2n1` [Compound 76], for which the IC50 in experiment [1] (setting [10]) was in the range of 1000 to 5900 nM.

Take `Cc1c(-c2cc(C(=O)O)c3cc(Br)ccc3n2)cnn1-c1cc(Cl)ccc1Cl` [Compound 39]: the IC50 in experiment [1] (setting [10]) was in the range of 6000 to 25000 nM.

For the compound `Cc1cc(C(F)(F)F)cc(-n2nc(-c3cc(C(=O)O)c4cc(Br)ccc4n3)cc2C)n1` [Compound 74], in experiment [1] (setting [10]), the IC50 was in the range of 1000 to 5900 nM.

For the compound `Cc1cc(C)c(-n2ncc(-c3cc(C(=O)O)c4cc(Br)ccc4n3)c2C)c(C)c1` [Compound 37], the IC50 in [1] (setting [10]) is 1000 to 5900 nM.

For `CC(=O)N[C@H]1[C@H]([C@H](O)[C@H](O)CO)OC(C(=O)O)=C[C@@H]1N=C(N)N` [Relenza, Zanamivir], the IC50 is 1.05 ± 0.458 µM in experiment [3]; 22.5 ± 3.47 µM in experiment [4]; 0.86 ± 0.36 µM in experiment [5]; 0.809 ± 0.15 µM in experiment [6]; over 25 µM in experiment [7]; over 25 µM in [8]. Also, the IC50 in experiment [9] is over 25 µM.

`Cc1ccc(C)c(-n2ncc(-c3cc(C(=O)O)c4cc(F)ccc4n3)c2C)c1` [Compound 50]: in experiment [1] (setting [10]), the IC50 lay in the range of 1000 to 5900 nM.

On to `Cc1c(-c2cc(C(=O)O)c3cc(Br)ccc3n2)cnn1-c1ccc(Cl)c(Cl)c1` [Compound 8], for which the IC50 in experiment [1] (setting [10]) lay in the range of 1000 to 5900 nM.

Regarding `Cc1cccc(-n2ncc(-c3cc(C(=O)O)c4cc(Br)ccc4n3)c2C)c1C` [Compound 30], the IC50 in [1] (setting [11]) was in the range of 10 to 999 nM.

As for `Cc1cc(-c2cc(C(=O)O)c3cc(Br)ccc3n2)nn1-c1ccc2ccccc2n1` [Compound 75], in experiment [1] (setting [10]), the IC50 is 1000 to 5900 nM.

With `Cc1ccc(Cl)cc1-n1ncc(-c2cc(C(=O)O)c3cc(Br)ccc3n2)c1C` [Compound 31], in experiment [1] (setting [11]), the IC50 was 10 to 999 nM.

For `Cc1ccc(C)c(-n2ncc(-c3cc(C(=O)O)c4cc(Br)cc(C)c4n3)c2C)c1` [Compound 59], in [1] (setting [10]), the IC50 lay within 1000 to 5900 nM.

As for `Cn1c(-c2ccccc2)ccc1-c1cc(C(=O)O)c2cc(Br)ccc2n1` [Compound 47], in experiment [1] (setting [11]), the IC50 lay within 10 to 999 nM.

As to `Cc1c(-c2cc(C(=O)O)c3cc(Br)ccc3n2)noc1-c1ccccc1` [Compound 49], in [1] (setting [10]), the IC50 fell in the range of 1000 to 5900 nM.

For `Cc1c(-c2cc(C(=O)O)c3cc(Br)ccc3n2)cnn1-c1ccc([N+](=O)[O-])cc1` [Compound 16], the IC50 in experiment [1] (setting [10]) was 1000 to 5900 nM.

In the case of `Cc1ccc(-n2ncc(-c3cc(C(=O)O)c4cc(Br)ccc4n3)c2C)cc1` [Compound 9], the IC50 in experiment [1] (setting [11]) was in the range of 10 to 999 nM.

For `O=C(O)c1cc(-c2cnn(-c3ccccc3)c2)nc2ccc(Br)cc12` [Compound 43], the IC50 in experiment [1] (setting [10]) was in the range of 6000 to 25000 nM.

Regarding `Cc1c(-c2cc(C(=O)O)c3cc(Br)ccc3n2)cnn1-c1cccc([N+](=O)[O-])c1` [Compound 29], the IC50 in experiment [1] (setting [10]) is 6000 to 25000 nM.

`Cc1c(-c2cc(C(=O)O)c3cc(Br)ccc3n2)cnn1-c1cc(Cl)cc(Cl)c1` [Compound 57]: the IC50 in experiment [1] (setting [10]) fell in the range of 1000 to 5900 nM.

Consider `COc1cccc(-n2ncc(-c3cc(C(=O)O)c4cc(Br)ccc4n3)c2C)c1` [Compound 18], for which, in [1] (setting [10]), the IC50 lay in the range of 1000 to 5900 nM.

`Cc1c(-c2cc(C(=O)O)c3cc(Br)ccc3n2)cnn1-c1ccc(F)cc1F` [Compound 21]: the IC50 in experiment [1] (setting [10]) fell in the range of 1000 to 5900 nM.

With `Cc1ccc(C)c(-n2ncc(-c3cc(C(=O)O)c4cc(I)ccc4n3)c2C)c1` [Compound 60], in experiment [1] (setting [11]), the IC50 lay within 10 to 999 nM.

`Cc1c(-c2cc(C(=O)O)c3cc(Br)ccc3n2)cnn1-c1c(Cl)cccc1Cl` [Compound 41]: the IC50 in experiment [1] (setting [10]) fell in the range of 6000 to 25000 nM.

For `Cc1c(-c2cc(C(=O)O)c3cc(Br)ccc3n2)cnn1-c1ccc(C(C)C)cc1` [Compound 13], the IC50 in [1] (setting [11]) was in the range of 10 to 999 nM.

As for `CCc1ccccc1-n1ncc(-c2cc(C(=O)O)c3cc(Br)ccc3n2)c1C` [Compound 38], the IC50 in [1] (setting [10]) fell in the range of 1000 to 5900 nM.

`Cc1c(-c2cc(C(=O)O)c3cc(Br)ccc3n2)cnn1-c1ccc(F)c(F)c1` [Compound 6]: in experiment [1] (setting [10]), the IC50 lay within 1000 to 5900 nM.

Consider `NC12CC3CC(CC(C3)C1)C2` [Amantadine], for which the IC50 in [3] is 12.6 ± 6.93 µM; in [4], 1.47 ± 0.603 µM; in experiment [5] it was 0.762 ± 0.28 µM; in experiment [6] it was 0.96 ± 0.317 µM; in [7], over 25 µM; in experiment [8], over 25 µM. This compound also displayed an IC50 in [9] of over 25 µM.

In the case of `Cc1cc(C)cc(-n2ncc(-c3cc(C(=O)O)c4cc(Br)ccc4n3)c2C)c1` [Compound 15], the IC50 in [1] (setting [11]) is 10 to 999 nM.
